“Also recorded” adds a separate entry of the source. Where two headings read alike, the source gives them in different places.
Columns and labels:
water solubility = assay type: physicochemical
HuCCT1 CCA cells [1] = assay: 24-hour transwell cell migration assay, HuCCT1; assay type: cell-based, human; settings: 10 μM compound 14c, versus DMSO
Procedure: (§1) We used 5×10^4 HuCCT1 and 1×10^5 RBE cells in the migration assay.
(§2) Human cholangiocarcinoma cell lines, HuCCT1, RBE, and SSP25 were purchased from the RIKEN cell line bank. They were cultured in RPMI-1640 medium supplemented with 10% (v/v) fetal bovine serum, 2 mM of L-glutamine, and penicillin/streptomycin. A BDE-Neu cell line and BDE-Neu CL24 were cultured in Dulbecco's modified Eagle's medium supplemented with 10% (v/v) fetal bovine serum, 2 mM of L-glutamine, and penicillin/streptomycin. Plasmids pLKO.1-shRNA-luciferase (shLuc) and pLKO.1-shRNA-ASPH (shASPH) were purchased from Sigma-Aldrich (St. Louis, Mo.).
(§3) The cell migration assay was performed using transwell chambers (pore size: 8 μm, Corning 3422) coated with Matrigel® (Corning 354480). The cell invasion assay was performed by using transwell chambers coated with Matrigel® (Corning 354480) as previously described. In brief, 10^5 cells in 200 μl of serum-free medium were plated in the top chamber and 600 μl of culture medium containing 10% fetal bovine serum was preparedapplied in the lower chamber to stimulate cell for migration. Cells were incubated for 24 hours, fixed with methanol, stained with 10% Giemsa solution, and counted using ImageJ software (National Institute of Health, USA). The results of invasion assay were analyzed as described in the migration assay.

MMP2 = assay: immunohistochemistry of primary intrahepatic tumor, MMP2; assay type: in vivo; settings: rat, 10 mg/kg oral daily
Procedure: (§4) The immunohistochemistry assay was performed as known in the art. Tissue slides were de-paraffined, re-hydrated, and then subjected to antigen-retrieval using the antigen unmasking solution (Vector Inc., H3300). The endogenous peroxidase activity was quenched with 3% H2O2 prepared in methanol. Tissues slides were further blocked with a 5% milk and BSA solution prepared in 1×PBST for 1 hour. The slides were incubated with ASPH, MMP2, and MMP14 antibodies prepared in with 3% BSA in PBS) overnight at 4° C. overnight. The slides were washed with 0.05% TBST three times and then incubated with 1:200 dilution of biotinylated secondary antibody (Vector Laboratories) and the ABC solution (Vector Laboratories) at 20° C. The slides were incubated with DAB substrate to detect positive staining. […] Images were taken using a Nikon microscope and analyzed with Image Pro Plus.
(§5) To evaluate whether compound 14c suppresses CCA metastasis in vivo, we performed experiments in a rat intrahepatic syngeneic CCA model by ligating the bile duct and inoculating rat BDE-neu-CL24 cells into the liver. We first determined that compound 14c inhibited BDE-neu-CL24 cells in vitro (FIG. 4A). […] The body weights were measured as a gross indicator of drug toxicity and were not affected compared to vehicle control (FIG. 7). The metastatic spread to the lung surface was determined (FIG. 4D).

HuCCT1 CCA cells [2] = assay: cell invasion assay, matrix-coated Boyden chamber transwell, HuCCT1; assay type: cell-based; settings: Homo sapiens, HuCCT-1, 10 μM compound 14c, versus DMSO, read-out: inhibition of cell invasion capacity
Procedure: as §2, §3

RBE CCA cells [3] = assay: cell invasion assay, matrix-coated Boyden chamber transwell, RBE; assay type: cell-based; settings: Homo sapiens, 10 μM compound 14c, versus DMSO, read-out: inhibition of cell invasion capacity
Procedure: as §2, §3

[4] = body weights of experimental rats as gross indicator of drug toxicity; assay type: in vivo; settings: rat, compound 14c 10 mg/kg, measured at the indicated experimental time points, n=8-10
Procedure: There was no difference between the control and experimental groups.
The intrahepatic CCA metastatic models weremetastasis model was established with BDE-Neu-CL24 cells. Rats were anesthetized with isoflurane, the abdomen was opened, and the liver inoculated with 3×10^6 BDE-Neu-CL24 cells. The bile duct was then ligated following administration of 0.03 mg/kg of buprenorphine prior to surgery, and four hours after surgery, and the following morning for analgesia as needed. The rats were monitored daily and evaluated for weight change, body condition, and signs of ascites. The oral formulated compound 14c were prepared in capsules at a dose of 10 mg/kg and administered with an oral syringe. […] All lung tissues were immersed in Bouin's fixative solution and the metastatic nodules on the surface of the lungs were counted.
as §5

RBE CCA cells [5] = assay: 24-hour transwell cell migration assay, RBE; assay type: cell-based, human
Procedure: as §1, §2, §3

MMP14 = assay: immunohistochemistry of primary intrahepatic tumor, MMP14; assay type: in vivo; settings: rat, 10 mg/kg oral daily
Procedure: as §4, §5

BDE-neu-CL24 cells = assay: cell migration assay, rat BDE-neu CL24 CCA cells; assay type: cell-based; settings: 10 μM, versus DMSO
Procedure: as §2, §3

[6] = test system: intrahepatic CCA tumors from BDE-Neu-CL24 cells; assay: rat intrahepatic syngeneic CCA metastasis model; assay type: in vivo; settings: for CCA metastatic spread to the lung (metastatic nodules): rat, 10 mg/kg oral capsule daily for 18 days, versus control capsule, p=0.041, 10 mg/kg
Procedure: Rats received 10 mg/kg (body weight) of the ASPH inhibitor daily for 18 days and sacrificed at day 21 post-surgery
The statistical analysis was performed using the Mann-Whitney U test. *, p<0.05 versus control.
The compound 55 (25 mg/kg) was given by i.p injection, and 10 mg/kg of compound 14c via i.p. injection 3 times per week. N=8-10 in each group.
The intrahepatic CCA metastatic models weremetastasis model was established with BDE-Neu-CL24 cells. Rats were anesthetized with isoflurane, the abdomen was opened, and the liver inoculated with 3×10^6 BDE-Neu-CL24 cells. The bile duct was then ligated following administration of 0.03 mg/kg of buprenorphine prior to surgery, and four hours after surgery, and the following morning for analgesia as needed. The rats were monitored daily and evaluated for weight change, body condition, and signs of ascites. The oral formulated compound 14c were prepared in capsules at a dose of 10 mg/kg and administered with an oral syringe. The rats were euthanized […] with Isoflurane and cervical dislocation. Tumors were dissected away from the adjacent liver and weighed. All lung tissues were immersed in Bouin's fixative solution and the metastatic nodules on the surface of the lungs were counted.
Statistical analyses of two groups were done by Student's t-test unless otherwise stated. Equality of variance was examined using F-test. Mann-Whitney U test was used to assess the significance between the two groups with respect to the numbers of metastatic nodules in the rat lung by using the software “R”.
To evaluate whether compound 14c suppresses CCA metastasis in vivo, we performed experiments in a rat intrahepatic syngeneic CCA model by ligating the bile duct and inoculating rat BDE-neu-CL24 cells into the liver. We first determined that compound 14c inhibited BDE-neu-CL24 cells in vitro (FIG. 4A). The intrahepatic rat model was established and the rats challenged with a control capsule or a capsule containing compound 14c (10 mg/kg, FIG. 4B) orally and daily for 18 days, and animals were sacrificed on day 21 (FIG. 4C). The body weights were measured as a gross indicator of drug toxicity and were not affected compared to vehicle control (FIG. 7). The metastatic spread to the lung surface was determined (FIG. 4D).

ASPH = target: T1, ASPH (Homo sapiens, UniProt Q12797); assay: ASPH enzymatic (catalytic) activity; assay type: biochemical
T1 sequence (Q12797 1-758): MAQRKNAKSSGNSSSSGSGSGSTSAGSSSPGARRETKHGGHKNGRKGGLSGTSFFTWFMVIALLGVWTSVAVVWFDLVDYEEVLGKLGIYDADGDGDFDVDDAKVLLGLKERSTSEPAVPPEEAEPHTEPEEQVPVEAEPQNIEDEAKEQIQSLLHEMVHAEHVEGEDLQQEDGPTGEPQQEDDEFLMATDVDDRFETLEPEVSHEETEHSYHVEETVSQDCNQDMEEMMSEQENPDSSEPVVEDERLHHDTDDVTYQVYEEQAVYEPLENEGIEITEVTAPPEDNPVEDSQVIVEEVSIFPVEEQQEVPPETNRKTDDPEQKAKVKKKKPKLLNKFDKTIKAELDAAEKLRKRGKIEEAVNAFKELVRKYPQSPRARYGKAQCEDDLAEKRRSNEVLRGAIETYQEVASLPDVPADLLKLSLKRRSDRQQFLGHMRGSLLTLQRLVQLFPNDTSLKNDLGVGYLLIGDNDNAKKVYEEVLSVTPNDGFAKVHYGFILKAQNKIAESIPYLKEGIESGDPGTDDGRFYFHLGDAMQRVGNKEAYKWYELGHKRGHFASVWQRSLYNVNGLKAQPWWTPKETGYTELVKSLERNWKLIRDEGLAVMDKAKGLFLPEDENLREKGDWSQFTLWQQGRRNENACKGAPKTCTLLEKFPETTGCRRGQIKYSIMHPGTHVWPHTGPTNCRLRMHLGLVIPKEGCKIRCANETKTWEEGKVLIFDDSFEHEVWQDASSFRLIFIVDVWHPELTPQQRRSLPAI
Excerpt: FIGS. 5A-5B show a scheme for measuring ASPH catalytic activity.

[7] = listed as third generation ASPH inhibitor

| water solubility compared to previous generations of ASPH SMIs (water solubility) | water solubility compared to previous generations of ASPH SMIs (water solubility; [7]) | inhibitory effects on ASPH (enzymatic) activity compared to previous generations of ASPH SMIs (ASPH) | inhibitory effects on ASPH (enzymatic) activity compared to previous generations of ASPH SMIs (ASPH; [7]) | SMILES | reduction of cell migration (HuCCT1 CCA cells [1]) | MMP2 protein expression in primary intrahepatic tumor (MMP2) | inhibition at 10 µM (HuCCT1 CCA cells [2]) | inhibition at 10 µM (RBE CCA cells [3]) | body weights compared to vehicle control [4] | reduction of cell migration (RBE CCA cells [5]; 10 μM compound 14c, 24-hour transwell, versus DMSO) | reduction of RBE CCA cell migration (RBE CCA cells [5]; comparison of ASPH inhibitor generations, concentration not stated) | MMP14 protein expression in primary intrahepatic tumor (MMP14) | inhibition of BDE-neu-CL24 cells in vitro (cell migration, FIG. 4A) (BDE-neu-CL24 cells) | effects on CCA progression as compared to compound 55 (FIG. 6A, weight of CCA tumors) ([6]; rat CCA model, compound 14c 10 mg/kg i.p. 3 times per week versus compound 55 25 mg/kg i.p.) | CCA metastatic spread to the lung (metastatic nodules) [6] | CCA metastatic spread to the lung (metastatic nodules) [6, 7] | anti-tumor effects on metastatic spread to the lung ([6]; rat model, 25 mg/kg, daily) | anti-tumor effects on primary tumor growth ([6]; rat model, 25 mg/kg, daily) |
| --- | --- | --- | --- | --- | --- | --- | --- | --- | --- | --- | --- | --- | --- | --- | --- | --- | --- | --- |
| improved water solubility | more water soluble | improved | increased potency | COC(=O)c1ccc(C2OC(N)=C(OS(=O)(=O)Cc3ccccc3)C2=O)cc1 (stereo not drawn) [compound 14c] | 50% | significantly down-regulated | 60% | 83% | not affected; also recorded: no difference | 70% | approximately 70% | significantly down-regulated | inhibited | improved effects | substantially decreased | suppressed | – | – |
| – | – | – | – | NC1=C(OS(=O)(=O)Cc2ccccc2)C(=O)C(c2ccc(C(F)(F)F)cc2)O1 (stereo not drawn) [compound 55, 2-(4-trifluoromethylphenyl)-4-[[phenylmethylsulfonyl]oxy]-5-amino-3(2H)-furanone] | – | – | – | – | – | – | – | – | – | – | – | – | did not achieve satisfactory anti-tumor effects | did not achieve satisfactory anti-tumor effects |
